Reference: patent US20260130924A1, “COMPOSITIONS AND METHODS OF TREATING SUBJECTS WITH BRCA1 MUTATION OR DEFICIENCY” (BOARD OF REGENTS, THE UNIVERSITY OF TEXAS SYSTEM, priority 2022, published 2026)
“Also recorded” adds a separate entry of the source.

Experiments:
Type in all cases: cell-based, human
VDAC3-KO cells = experiment: FIN-induced ferroptosis in VDAC3-KO cells; conditions: VDAC3 sg cells versus control
Experimental: (§1) Knockout of BRCA1, BRCA2, VDAC3, GPX4, ECAD, 53BP1, and NCOA4 in human cell lines was performed using single guide RNAs (sgRNAs) and the CRISPR-Cas9 expression system as previously described. Briefly, sgRNAs were cloned into the lentiviral LentiGuide vector. The sequences of sgRNAs used in the current study are listed in SEQ ID NOs 1-23. LentiGuide clones were transfected into HEK293T cells with a psPAX2 packaging plasmid and pMD2.G-expressing plasmid. Cells were infected with lentivirus with 0.8 μg/mL polybrene and selected with puromycin (1 μg/mL, InvivoGen) or blasticidin (2 μg/mL, InvivoGen), followed by Western blot analysis to confirm target gene deletion. To maintain GPX4 knockout cells, we added 1 μM ferrostatin-1 into the media.
Viable cells were measured using Cell Counting Kit-8 (CCK-8, Dojindo) as previously described. Briefly, cells were seeded onto 96-well plates and subsequently treated with indicated agents. […] The absorbance at a wavelength of 450 nm was determined using a FLUOstar Omega microplate reader (BMG Labtech). The combination effects were assessed with Bliss independence model and the score is defined as “observed combination effect” minus “expected additive effect”.
Cell death was measured by propidium iodide (Roche) staining using a flow cytometer, as previously described. […] The percentage of the propidium iodide-positive dead cells was determined using the flow cytometer BD Accuri C6 (BD Biosciences) or Attune NXT Flow Cytometer (ThermoFisher) with an FL2 detector. A minimum of 5,000 single cells were analyzed per well.
As previously described C11-BODIPY 581/591 (Invitrogen) was used for lipid peroxidation, MitoPerOx (Abcam) for mitochondrial lipid peroxidation, and CM-H2DCFDA (ThermoFisher) for ROS measurements. […] After staining with 2.5 μM C11-BODIPY 581/591, 2.5 μM MitoPerOx, or 4 μM CM-H2DCFDA for 20 minutes, cells were analyzed using the flow cytometer BD Accuri C6 (BD Biosciences) or Attune NxT Flow Cytometer (ThermoFisher) with a 488-nm laser on an FL1 detector. A minimum of 5,000 single cells were analyzed per well.

[1] = tested on: BRCA1 sgRNA-infected (BRCA1 sg) cells; experiment: FIN-induced lipid peroxidation and ferroptosis in BRCA1 sgRNA-infected cells; conditions: for effect of BRCA1 deficiency on the lipid peroxidation and ferroptosis induced by the compound: BRCA1 sg cells versus control; for effect on RSL3-induced cell death in BRCA1 sg cells: co-treatment with RSL3
Experimental: as §1
(§2) Viable cells were measured using Cell Counting Kit-8 (CCK-8, Dojindo) as previously described. Briefly, cells were seeded onto 96-well plates and subsequently treated with indicated agents. Next, cells were exposed to 10 μL of CCK-8 reagent (100 μL of medium per well) for 1 hour at 37° C. with 5% CO2 in an incubator. The absorbance at a wavelength of 450 nm was determined using a FLUOstar Omega microplate reader (BMG Labtech). The combination effects were assessed with Bliss independence model and the score is defined as “observed combination effect” minus “expected additive effect”.
(§3) Cell death was measured by propidium iodide (Roche) staining using a flow cytometer, as previously described. Briefly, cells were seeded onto 6- or 12-well plates and subsequently treated with indicated agents. For GPX4 knockout cells, ferrostatin-1 was removed from the culture media. Next, cells were collected (including floating dead cells) and stained with 5 μg/mL propidium iodide. The percentage of the propidium iodide-positive dead cells was determined using the flow cytometer BD Accuri C6 (BD Biosciences) or Attune NXT Flow Cytometer (ThermoFisher) with an FL2 detector. A minimum of 5,000 single cells were analyzed per well.
(§4) As previously described C11-BODIPY 581/591 (Invitrogen) was used for lipid peroxidation, MitoPerOx (Abcam) for mitochondrial lipid peroxidation, and CM-H2DCFDA (ThermoFisher) for ROS measurements. Briefly, cells were seeded on 6- or 12-well plates and subsequently treated with indicated agents. After staining with 2.5 μM C11-BODIPY 581/591, 2.5 μM MitoPerOx, or 4 μM CM-H2DCFDA for 20 minutes, cells were analyzed using the flow cytometer BD Accuri C6 (BD Biosciences) or Attune NxT Flow Cytometer (ThermoFisher) with a 488-nm laser on an FL1 detector. A minimum of 5,000 single cells were analyzed per well.

NCOA4 = NCOA4 expression after PARPi treatment (western blotting); conditions: SUM149 and HCC1937 cells
Experimental: (§5) Cell pellets were lysed using immunoprecipitation lysis buffer (Fisher Scientific) or NP-40 buffer containing complete mini protease inhibitors (Roche). Protein concentrations were detected by a Bicinchoninic Acid Protein Assay (Thermo Scientific) using a FLUOstar Omega microplate reader (BMG Labtech). Immunoprecipitation and Western blot analysis were conducted as previously described. The primary antibodies and concentrations used in the current study included the followed: GPX4 (1:1,000, MAB5457, R&D systems), BRCA1 (1:1,000, 14823, Cell Signaling), BRCA2 (1:1,000, MAB2476-SP, R&D Systems), DHODH (1:1,000, 14877-1-AP, Proteintech), ACSL4 (1:1,000, sc-271800, Santa Cruz), FSP1 (1:1,000, 20886-1-AP, Proteintech), VDAC1 (1:1,000, 66345-1-Ig, Proteintech), VDAC2 (1:1,000, 66388-1-Ig, Proteintech), VDAC3 (1:1,000, 55260-1-AP, Proteintech), SLC7A11 (1:1,000, 12691, Cell Signaling), NCOA4 (1:1,000, 66849, Cell Signaling), vinculin (1:10000; V4505, Sigma), β-actin (1:1,000, 3700, Cell Signaling), LC3B (1:5000, 3868, Cell Signaling), 53BP1 (1:5000, NB100-304, Novus Biologicals), E-Cadherin (1:1000, 3195, Cell Signaling), and tubulin (1:5000, 2144, Cell Signaling).

[2] = tested on: WT, BRCA1- or VDAC3-deficient cells; experiment: Rescue of Erastin-induced ferroptosis by antioxidants (cell viability); conditions: for effect on Erastin-induced ferroptosis: wild-type (WT), BRCA1- or VDAC3-deficient cells
Experimental: as §2

[3] = tested on: BRCA1-mutant cancer cells (SUM149, HCC1937); experiment: PARPi+GPX4i combination-induced lipid peroxidation and cell death; conditions: for effect on cell death induced by PARP inhibitor+GPX4 inhibitor combination: BRCA1-mutant cells
Experimental: as §3, §4

NRF2 and GPX4 = NRF2 and GPX4 protein levels (western blotting); conditions: for GPX4 levels: BRCA1-mutant SUM149 cells
Experimental: as §5, with “[…],” for “V4505,”

SUM149 and HS578T cells = experiment: ROS-related cell death in SUM149 and HS578T cells (cell viability)
Experimental: as §2

[4] = tested on: BRCA2 sgRNA infected HT1080 cells; experiment: FIN sensitivity of BRCA2 sgRNA-infected HT1080 cells; conditions: BRCA2 sg HT1080 versus control
Experimental: as §1, §2

[5] = BRCA1 sgRNA infected SKOV3 cells

O=C(O)c1cc(/N=N/c2ccc(S(=O)(=O)Nc3ccccn3)cc2)ccc1O [sulfasalazine]
effect of VDAC3 deletion on the lipid peroxidation, ferroptosis or sensitivity induced by the compound (VDAC3-KO cells): did not affect
effect of BRCA1 deficiency on the lipid peroxidation and ferroptosis induced by the compound [1]: did not affect

NC(=O)c1cccc2cn(-c3ccc([C@@H]4CCCNC4)cc3)nc12 [niraparib]
NCOA4 expression (NCOA4): significantly induced

CC1(C)CC(NC(=O)C[P+](c2ccccc2)(c2ccccc2)c2ccccc2)CC(C)(C)N1[O] [MitoTEMPO]
effect on cell viability of Erastin-treated cells ([2]; BRCA1- or VDAC3-deficient counterparts): did not provide a protective effect
effect on cell viability of Erastin-treated cells ([2]; WT cells): largely restored cell viability

CN1C(=O)NC(Cc2c[nH]c3c(Cl)cccc23)C1=O (centres unmarked) [Nec-1s]
effect on cell death induced by PARP inhibitor+GPX4 inhibitor combination [3]: not

CCOC(=O)c1ccc(NC2CCCCC2)c(N)c1 [ferrostatin-1]
effect on cell death induced by PARP inhibitor+GPX4 inhibitor combination [3]: largely abolished
effect on Erastin-induced ferroptosis [2]: completely suppressed
effect on RSL3-induced cell death in BRCA1 sg cells [1]: abolished

CC(=O)N[C@@H](CS)C(=O)O [NAC, N-acetyl-1-cysteine]
effect on PARP inhibitor-induced NRF2 and GPX4 induction (NRF2 and GPX4; BRCA1-WT HS578T cells): abolished
effect on PARP inhibitor-induced cell killing (SUM149 and HS578T cells; BRCA1-deficient SUM149 cells): partially restored; also recorded: suppressed

C[S+]([O-])CCCCN=C=S (centres unmarked) [sulforaphane]
GPX4 levels (NRF2 and GPX4): increased GPX4 levels

CC(C)(C)c1cc(O)ccc1O [tert-butylhydroquinone]
GPX4 levels (NRF2 and GPX4): increased GPX4 levels
NRF2 and GPX4 levels (NRF2 and GPX4; [5]): induced both NRF2 and GPX4 levels
effect on ferroptosis induced by olaparib+RSL3 combination ([3]; SUM149 cells): suppressed
effect on RSL3-induced ferroptosis [1, 5]: rendered these cells resistant to RSL3-induced ferroptosis

CC1(C)CCCC(C)(C)N1[O] [TEMPO]
effect on Erastin-induced ferroptosis [2]: completely suppressed

CC(C)(C)OO [TBH, tert-butyl hydroperoxide]
cell death in BRCA1-deficient versus BRCA1-proficient cells (SUM149 and HS578T cells; SUM149 or BRCA1 sg HS578T cells compared with HS578T cells): induced more cell death

Z-VAD
effect on cell death induced by PARP inhibitor+GPX4 inhibitor combination [3]: not
effect on RSL3-induced cell death in BRCA1 sg cells [1]: not

CC(C)Oc1ccc(C(=O)Cn2ccnc2)cc1-n1c(CN2CCN(C(=O)COc3ccc(Cl)cc3)CC2)nc2ccccc2c1=O [IKE, imidazole ketone erastin]
effect of VDAC3 deletion on the lipid peroxidation, ferroptosis or sensitivity induced by the compound (VDAC3-KO cells): largely abolished
effect of BRCA2 depletion on cellular sensitivity to the compound [4]: did not affect
effect of BRCA1 deficiency on the lipid peroxidation and ferroptosis induced by the compound [1]: remarkably repressed
